The values that follow come from patent US20220380310A1, “P2X7R ANTAGONISTS” (priority 2019, published 2022).

Where a name gives a salt, the structure may show the parent alone.

One experiment addresses T1, P2X2R (Homo sapiens, UniProt Q9UBL9).
T1 construct: expressed in transfected cells; host or cells: HEK-293
T1 sequence (Q9UBL9 1-471): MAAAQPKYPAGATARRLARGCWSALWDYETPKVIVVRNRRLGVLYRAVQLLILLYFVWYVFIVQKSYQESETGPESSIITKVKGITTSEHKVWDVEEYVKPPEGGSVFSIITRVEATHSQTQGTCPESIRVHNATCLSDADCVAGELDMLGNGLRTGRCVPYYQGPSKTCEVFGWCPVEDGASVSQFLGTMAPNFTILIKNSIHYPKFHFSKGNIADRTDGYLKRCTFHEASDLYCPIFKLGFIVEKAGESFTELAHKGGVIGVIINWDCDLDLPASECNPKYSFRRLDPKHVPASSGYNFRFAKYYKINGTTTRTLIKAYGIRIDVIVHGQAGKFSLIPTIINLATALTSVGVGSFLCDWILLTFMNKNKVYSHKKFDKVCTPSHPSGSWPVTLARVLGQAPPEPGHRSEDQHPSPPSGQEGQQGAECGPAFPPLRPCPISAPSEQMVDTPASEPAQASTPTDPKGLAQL
As to the kind of experiment: Receptor-mediated calcium entrance assay (Calcium Assay), P2X2R. It counts as cell-based. The conditions noted are these: compound at 5 μM, read-out: Percentage of activity remains in the presence of the compound at 5 μM, P2X2R (Calcium Assay).

Experiment [1] addresses T2, Human P2X4 receptor (P2X4R) (Homo sapiens, UniProt Q99571).
T2 construct: expressed in transfected cells; host or cells: HEK-293
T2 sequence (Q99571 1-388): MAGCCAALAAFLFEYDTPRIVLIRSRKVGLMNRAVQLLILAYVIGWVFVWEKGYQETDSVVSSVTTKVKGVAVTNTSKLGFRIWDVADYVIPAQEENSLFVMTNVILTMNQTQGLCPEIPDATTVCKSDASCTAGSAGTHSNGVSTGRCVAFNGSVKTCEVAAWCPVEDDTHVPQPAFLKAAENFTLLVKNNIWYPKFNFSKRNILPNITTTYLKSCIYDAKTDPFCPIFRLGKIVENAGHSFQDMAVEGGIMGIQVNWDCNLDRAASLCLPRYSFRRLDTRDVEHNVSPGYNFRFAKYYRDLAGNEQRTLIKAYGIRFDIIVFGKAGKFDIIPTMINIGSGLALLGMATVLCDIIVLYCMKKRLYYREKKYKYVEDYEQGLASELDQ
The experiment in a line: Receptor-mediated calcium entrance assay (Calcium Assay), P2X4R transfected HEK-293 cells. It counts as cell-based. The conditions noted are these: HEK293, compound at 5 μM, 1 mM ATP stimulus, read-out: Percentage of activity remains in the presence of the compound at 5 μM, P2X4R (Calcium Assay). The text has this: Human P2X1 receptor (P2X1R) is a member of P2X family. […] Thus, the calcium assay was used. In the calcium assay, P2X receptor activation leads to opening of ion channels, which increases intracellular calcium concentration. The increased intracellular calcium concentration can be detected by a calcium indicator dye such as Fluo-4 or Fluo-8. Molecular Probes™ Fluo-4, AM (Cat. No. F14201 from Fisher Scientific) was used in the assay. The procedures were similar as described in the Yo-Pro-1 assay until day 4. The construct of P2X1R for transient transfection to HEK-293 cells was the courtesy from Dr. Richard J. Evans laboratory (J. Biol. Chem. 279:9043-9055). After transfection and expression, on day 4 cells were washed twice by Ca-HBSS (The composition (in mM) was NaCl 135, HEPES 10, D-glucose 10, KCl 5.4, CaCl2 2, and MgCl2 1, pH to 7.4 by NaOH) and incubated in dye loading solution (The solution contained 2.5 μM Fluo-4, 1 mM probenecid, and 1× PowerLoad (Cat. No. P10020 from Fisher Scientific) in Ca-HBSS) for 70 minutes at 37° C. Then the extracellular loading dye was washed away and cells were incubated at Ca-HBSS containing 1 mM probenecid for 30 minutes. Before the final steps, probenecid was washed away with Ca-HBSS. The assay was performed by adding 25 μl of Ca-HBSS followed by 25 μl of various test compounds. At this point, the base level of fluorescence was obtained through the microplate reading—the base microplate reading for this assay. At the end, the stimulus (ATP at 20 μM was the final concentration for P2X1R) was added to activate the P2X1R. Activation of P2X1R opened the channel to allow influx of calcium, which was represented by fluorescence increases that were measured by the microplate device with excitation at 475 nm and emission wavelength in the range of 500-550 nm. The data were analyzed the same way as described before: The result of each well was first normalized by its corresponding base microplate reading. Then, the negative control signal was subtracted from. In the negative control, the test compound and the stimulus were replaced by Ca-HBSS. […] An average of six highest values of the plate (AVG) were considered as 100% and the value of each well was divided by AVG and presented as the relative values in percentages.
Human P2X4 receptor (P2X4R) construct (J. Biol. Chem. 290, 7930-7942) was transiently transfected to HEK-293 cells and the calcium assay was performed as described above. When 1 mM ATP was used as stimulus, an increased receptor mediated activity leading to intracellular calcium elevation can be seen in less than 10 minutes.

For the molecule `CCOc1ccc(S(=O)(=O)N2CCCC(NC(=O)CCc3ccccc3)C2)cc1` (stereo not shown) [#37], the remaining activity at 5 µM at P2X2R came to 90.3%; in experiment [1], 54.8%.

Consider `CC(C)OC1CCN(c2ccc(S(=O)(=O)N3CCCC(NC(=O)CCc4ccccc4)C3)cc2)CC1` (stereo not shown) [#39], for which the remaining activity at 5 µM on P2X2R came to 86.6%; in experiment [1], 68.2%.

As for `O=C(CCc1ccccc1)N1CCN(S(=O)(=O)c2ccc(N3CCCC3)cc2)CC1` [#35], the remaining activity at 5 µM on P2X2R worked out at 43.7%; in experiment [1] it was 70.7%.

Turning to `O=C(CCc1ccccc1)NC1CCCN(c2ccc(S(=O)(=O)Nc3ccccc3)cc2)C1` (stereo not shown) [#50], the remaining activity at 5 µM on P2X2R was determined as 67.2%; in experiment [1], 84.3%.

In the case of `O=C(CCc1ccccc1)NC1CCCN(S(=O)(=O)c2ccc(F)c(Cl)c2)C1` (stereo not shown) [#43], the remaining activity at 5 µM on P2X2R amounted to 56%; in experiment [1], 48.4%.

With `O=C(CCc1ccccc1)N1CCNCC1` [#29, hydrochloride], the remaining activity at 5 µM at P2X2R was found to be 83.3%; in experiment [1], 67.1%.

As to `O=C(CCc1ccccc1)NC1CCCN(c2ccc(S(=O)(=O)NCc3ccco3)cc2)C1` (stereo not shown) [#52], the remaining activity at 5 µM is 72.3% at P2X2R and 52.8% in experiment [1].

Take `COc1ccc(S(=O)(=O)N2CCCC(NC(=O)CCc3ccccc3)C2)cc1` (stereo not shown) [#2]: the remaining activity at 5 µM was 85.7% at P2X2R and 56.4% in experiment [1].

As for `CC(C)(C)OC(=O)N1CCN(c2ccc(S(=O)(=O)N3CCCC(C(=O)NCCc4ccccc4)C3)cc2)CC1` (stereo not shown) [#36], the remaining activity at 5 µM was determined as 49.4% at P2X2R and 72.2% in experiment [1].

For `NC(=O)c1cc(Br)cc(N2CCOCC2)c1` [#28], the remaining activity at 5 µM at P2X2R was found to be 50.7%; in experiment [1], 85.4%.

On to `O=C(CCc1ccccc1)NC1CCCN(c2ccc(S(=O)(=O)N3CCCCC3)cc2)C1` (stereo not shown) [#54], for which the values for the remaining activity at 5 µM (on P2X2R; in experiment [1]) were 59.4% and 63.3%, respectively.

Regarding `O=C(CCc1ccccc1)NC1CCCN(S(=O)(=O)c2ccc(N3CCCCC3)cc2)C1` (stereo not shown) [#5], the figures for the remaining activity at 5 µM (at P2X2R; in experiment [1]) were 87.8% and 53.1%, respectively.

With `CS(=O)(=O)c1ccc(N2CCCC(NC(=O)CCc3ccccc3)C2)cc1` (stereo not shown) [#1], the remaining activity at 5 µM is 61.3% at P2X2R and 71.9% in experiment [1].

`O=C(NCCc1ccccc1)C1CCCN(S(=O)(=O)c2ccc(N3CCCC3)cc2)C1` (stereo not shown) [#25]: the remaining activity at 5 µM was 70% at P2X2R and 61% in experiment [1].

In the case of `O=C(CCc1ccccc1)NC1CCCN(S(=O)(=O)c2ccc(N3CCCCC3)c(Cl)c2)C1` (stereo not shown) [#45], the figures for the remaining activity at 5 µM (at P2X2R; in experiment [1]) were 49.4% and 61.9%, respectively.

For the molecule `O=C1CCC(N2Cc3c(NC(=O)CCc4ccccc4)cccc3C2=O)C(=O)N1` (stereo not shown) [#16], the values for the remaining activity at 5 µM (at P2X2R; in experiment [1]) were 77% and 60.7%, respectively.

As for `O=C(CCc1ccccc1)NC1CCCN(S(=O)(=O)Cc2ccc(Br)cc2)C1` (stereo not shown) [#8], the remaining activity at 5 µM was 94.6% on P2X2R and 50.9% in experiment [1].
